Where a SMILES comes first, the peptide text is derived from it. Bridges are numbered along the chain shown (N, C = ends). [ ]: non-standard residue; d: D form. The star is where a group is joined. hPhe(3-Cl-4-CF3) = N[C@@H](CCc1ccc(C(F)(F)F)c(Cl)c1)C(=O)O; NPrPhe(4-CF3) = CCCN[C@@H](Cc1ccc(C(F)(F)F)cc1)C(=O)O; NMeGly(cPent) = CN[C@H](C(=O)O)C1CCCC1; Ac4c(3,3-Me2) = CC1(C)CC(N)(C(=O)O)C1; NMeD = CN[C@@H](CC(=O)O)C(=O)O; NMeL = CN[C@@H](CC(C)C)C(=O)O; Morpholide = C1CN(*)CCO1; Sar = CNCC(=O)O
Key:
HRAS wild-type protein = HRAS wild-type protein (Homo sapiens, UniProt P01112); experiment: Binding to HRAS by surface plasmon resonance (SPR), KD and KD ratio to KRAS
Procedure, shortened: (§1)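 Captured GDP-RAS (~100–300 RU) was exposed to increasing compound concentrations, 75 s per step, in running buffer with 10 µM GDP, 10 mM MgCl2 and 4% DMSO at pH 7.4.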

[1] = target: GDP-bound NRAS wild-type protein (Homo sapiens, UniProt P01111); experiment: Binding to NRAS by surface plasmon resonance (SPR), KD and KD ratio to KRAS
Procedure, shortened: as §1

[2] = system: human lung cancer strain NCI-H441; assay type: cell-based
Procedure, shortened: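 Step one: dispense the test compound in serial DMSO dilutions. Step three: add the reagent and measure […].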

[3] = ratio of the KD value with respect to HRAS wild-type protein to the KD value with respect to KRAS
[4] = ratio of the KD value with respect to GDP-bound NRAS wild-type protein to the KD value with respect to KRAS

HRAS wild-type protein, sequence (P01112 whole entry): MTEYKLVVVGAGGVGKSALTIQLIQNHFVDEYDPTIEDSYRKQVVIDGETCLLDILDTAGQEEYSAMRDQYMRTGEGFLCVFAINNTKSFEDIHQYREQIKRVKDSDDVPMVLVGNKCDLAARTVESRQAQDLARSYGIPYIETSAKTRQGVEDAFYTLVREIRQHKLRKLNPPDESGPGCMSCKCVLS
GDP-bound NRAS wild-type protein, sequence (P01111 whole entry): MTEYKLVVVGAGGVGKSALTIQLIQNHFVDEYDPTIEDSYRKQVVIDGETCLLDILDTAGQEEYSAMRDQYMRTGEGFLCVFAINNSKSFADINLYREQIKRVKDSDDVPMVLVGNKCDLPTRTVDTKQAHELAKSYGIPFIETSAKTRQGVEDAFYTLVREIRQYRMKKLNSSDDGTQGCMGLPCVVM

IC50 [2] [nM]	Compound	HRAS /KRAS (HRAS wild-type protein; [3])	NRAS /KRAS [1, 4]	HRAS /KRAS (HRAS wild-type protein; ratio of KD value for HRAS wild-type protein to KD value for KRAS (SPR))	NRAS /KRAS ([1]; ratio of KD value for GDP-bound NRAS wild-type protein to KD value for KRAS (SPR))
11.1	CCCN(C)C(=O)[C@@H]1CC(=O)N(C)[C@@H](CC(F)F)C(=O)N[C@@H]([C@@H](C)CC)C(=O)N(C)CC(=O)N(C)[C@H]2C/C=C\CCN(C2=O)[C@@H](Cc2ccc(C(F)(F)F)cc2)C(=O)N(C)CC(=O)N[C@@H](CCc2ccc(C(F)(F)F)c(OC)c2)C(=O)N2C[C@@H](C)C[C@H]2C(=O)NC2(CC(C)(C)C2)C(=O)N(C)[C@@H](C2CCCC2)C(=O)N1C [PP1989]	A (a compound having 10 or more and less than 20 is denoted as A)	A (a compound having 10 or more and less than 20 is denoted as A)	–	–
9.9	CCCOC[C@H]1C(=O)N[C@@H]([C@@H](C)CC)C(=O)N(C2CC2)CC(=O)N(C)[C@H]2C/C=C\CCN(C2=O)[C@@H](Cc2ccc(C)cc2)C(=O)N(C)CC(=O)N[C@@H](CCc2ccc(C(F)(F)F)c(OC)c2)C(=O)N2C[C@H](OCC)C[C@H]2C(=O)N(C)C2(CCC2)C(=O)N(C)[C@@H](C(CC)CC)C(=O)N(C)[C@H](C(=O)N(C)C)CC(=O)N1C [PP2327]	A (a compound having 10 or more and less than 20 is denoted as A)	A (a compound having 10 or more and less than 20 is denoted as A)	–	–
165	CC[C@H](C)[C@@H]1NC(=O)[C@H](CC(C)C)N(C)C(=O)C[C@@H](C(=O)N2CCOCC2)N(C)C(=O)[C@H](C2CCCC2)N(C)C(=O)C2(CCCC2)NC(=O)[C@@H]2CCCN2C(=O)[C@H](CCc2cc(F)c(C(F)(F)F)c(F)c2)NC(=O)CN(C)C(=O)[C@H](Cc2ccc(C(F)(F)F)cc2)N2CCCCC[C@@H](C2=O)N(C)C(=O)[C@@H]2CCN2C1=O [PP0484]	B (a compound having 3 or more and less than 10 is denoted as B)	A (a compound having 10 or more and less than 20 is denoted as A)	–	–
4	CC[C@H](C)[C@@H]1NC(=O)[C@H](CC2CCCC2)N(C)C(=O)C[C@@H](C(=O)N(C)C)N(C)C(=O)[C@H](C2CCCC2)N(C)C(=O)C2(CCC2)NC(=O)[C@@H]2C[C@@H](C(F)(F)F)CN2C(=O)[C@H](CCc2cc(F)c(C(F)(F)F)c(F)c2)NC(=O)CN(C)C(=O)[C@H](Cc2ccc(C(F)(F)F)cc2)N2CC/C=C\C[C@@H](C2=O)N(C)C(=O)CN(C)C1=O [PP1505]	–	–	A (a compound having 10 or more and less than 20 is denoted as A)	A (a compound having 10 or more and less than 20 is denoted as A)
9.1	CCCN1C(=O)CN(C)C(=O)CN(C)C(=O)[C@H]([C@@H](C)OC)NC(=O)[C@H](CC(C)C)N(C)C(=O)C[C@@H](C(=O)N2CCOCC2)N(C)C(=O)[C@H](C2CCCC2)N(C)C(=O)C2(CC(C)(C)C2)NC(=O)[C@@H]2CCCN2C(=O)[C@H](CCc2ccc(C(F)(F)F)c(Cl)c2)NC(=O)CN(C)C(=O)[C@@H]1Cc1ccc(C(F)(F)F)cc1 [PP1963] ([NMeL]T(Me)[Sar][Sar][NPrPhe(4-CF3)][Sar][hPhe(3-Cl-4-CF3)]P[Ac4c(3,3-Me2)][NMeGly(cPent)][NMeD]-Morpholide; lactam N-11)	C (A compound having a KD ratio of 0.1 or more and less than 3 is denoted as C)	B (a compound having 3 or more and less than 10 is denoted as B)	–	–
20.9	CC[C@H](C)[C@@H]1NC(=O)[C@H](CC(C)C)NC(=O)C[C@@H](C(=O)N2CCOCC2)N(C)C(=O)[C@H](C2CCCC2)N(C)C(=O)C2(CCCC2)NC(=O)[C@@H]2CCCN2C(=O)[C@H](CCc2cc(F)c(C(F)(F)F)c(F)c2)NC(=O)CN(C)C(=O)[C@H](Cc2ccc(C(F)(F)F)cc2)N2CCCC[C@@H](C2=O)N(C)C(=O)CN(C)C1=O [PP0590]	B (a compound having 3 or more and less than 10 is denoted as B)	C (A compound having a KD ratio of 0.1 or more and less than 3 is denoted as C)	–	–
